The text below walks through data of BindingDB's records for doi:10.1021/jm800476q (Bristol Myers Squibb, 2008).

The assay has as its target Hepatocyte growth factor receptor (Homo sapiens, UniProt P08581). In words: Met Kinase Inhibition Assay. As to conditions: pH 7.5; 30 °C.

Each structure is given as a SMILES string.

Hepatocyte growth factor receptor, sequence (P08581 whole entry): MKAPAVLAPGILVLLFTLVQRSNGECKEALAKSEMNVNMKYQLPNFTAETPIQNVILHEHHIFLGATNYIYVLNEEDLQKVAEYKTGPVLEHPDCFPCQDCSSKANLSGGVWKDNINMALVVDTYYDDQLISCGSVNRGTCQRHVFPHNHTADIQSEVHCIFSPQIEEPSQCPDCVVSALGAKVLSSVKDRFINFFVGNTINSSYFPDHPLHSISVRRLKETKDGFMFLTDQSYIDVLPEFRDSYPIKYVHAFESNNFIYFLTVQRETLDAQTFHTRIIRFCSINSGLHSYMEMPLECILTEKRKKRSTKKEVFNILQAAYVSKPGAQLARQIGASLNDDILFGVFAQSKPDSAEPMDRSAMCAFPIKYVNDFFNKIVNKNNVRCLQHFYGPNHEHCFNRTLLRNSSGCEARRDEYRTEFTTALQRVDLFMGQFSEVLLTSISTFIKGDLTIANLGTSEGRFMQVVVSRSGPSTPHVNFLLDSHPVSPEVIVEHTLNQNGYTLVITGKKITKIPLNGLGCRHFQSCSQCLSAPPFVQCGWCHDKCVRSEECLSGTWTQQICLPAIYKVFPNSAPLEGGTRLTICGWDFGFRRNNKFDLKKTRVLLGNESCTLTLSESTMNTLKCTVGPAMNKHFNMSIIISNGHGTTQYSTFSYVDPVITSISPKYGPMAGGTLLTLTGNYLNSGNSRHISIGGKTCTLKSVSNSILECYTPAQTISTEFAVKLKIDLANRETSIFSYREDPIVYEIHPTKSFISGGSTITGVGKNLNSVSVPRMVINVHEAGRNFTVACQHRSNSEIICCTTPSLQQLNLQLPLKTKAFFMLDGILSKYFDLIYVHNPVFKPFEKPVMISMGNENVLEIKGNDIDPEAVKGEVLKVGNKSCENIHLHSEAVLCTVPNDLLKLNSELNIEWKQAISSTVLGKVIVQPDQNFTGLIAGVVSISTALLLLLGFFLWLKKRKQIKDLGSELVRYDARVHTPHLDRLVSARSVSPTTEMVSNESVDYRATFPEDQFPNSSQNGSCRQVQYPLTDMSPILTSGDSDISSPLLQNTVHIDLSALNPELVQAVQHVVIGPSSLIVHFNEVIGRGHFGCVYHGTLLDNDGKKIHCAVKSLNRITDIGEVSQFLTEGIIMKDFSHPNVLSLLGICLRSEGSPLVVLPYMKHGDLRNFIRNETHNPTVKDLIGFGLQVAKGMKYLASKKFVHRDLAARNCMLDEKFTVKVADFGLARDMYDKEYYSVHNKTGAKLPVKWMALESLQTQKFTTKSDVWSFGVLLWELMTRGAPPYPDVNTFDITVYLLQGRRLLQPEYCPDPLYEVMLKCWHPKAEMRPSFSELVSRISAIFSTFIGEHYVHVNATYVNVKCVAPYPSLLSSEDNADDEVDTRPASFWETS

In turn, `COc1ccc(-n2cc(C(=O)Nc3ccc(Oc4ccnc5[nH]ccc45)c(F)c3)c(=O)c(-c3ccc(F)cc3)c2)cc1F` [1-(3-fluoro-4-methoxyphenyl)-N-(3-fluoro-4-{1H-pyrrolo[2,3-b]pyridin-4-yloxy}phenyl)-5-(4-fluorophenyl)-4-oxo-1,4-dihydropyridine-3-carboxamide] showed an IC50 of 2.3 nM.

With `O=C(Nc1ccc(Oc2ccnc3[nH]ccc23)c(F)c1)c1cn(-c2ccc(Cl)c(F)c2)cc(-c2ccc(F)cc2)c1=O` [1-(4-chloro-3-fluorophenyl)-N-(3-fluoro-4-{1H-pyrrolo[2,3-b]pyridin-4-yloxy}phenyl)-5-(4-fluorophenyl)-4-oxo-1,4-dihydropyridine-3-carboxamide], the midpoint of inhibition, the IC50, lay at 5 nM.

What is called IC50 is the concentration that gives 50% inhibition. A lower IC50 goes with greater potency in that assay.
